Results: US9700609B2, “Compositions for treatment and/or prevention of autoimmune disorders” (University of Florida Research Foundation, Incorporated, priority 2013, dated 2017)

Assays:
[1] = system: BBDP rats; details: cited from earlier work; for Th17 bias: BBDP rat and NOD mouse (Lau et al. (2011)); for T1D resistance: oral transfer to BBDP rats (Valladares et al. (2010))
[2] = system: CD11b+ and CD11c+ leukocytes (APC); assay: APC frequency and MHC expression by flow cytometry in splenocyte cultures with graded doses of bacteria and anti-CD3; format: cell-based, NOD and NOR mice
Procedure: FIG. 8. LjN6.2, but not LrTD1, increases APC activation in NOD mice. Spleenocytes derived from NOD or NOR mice, were cultured with graded doses of LjN6.2 or LrTD1 in the presence of anti-CD3. Following 48 hours incubation, samples were analyzed through flow cytometry for APC activation. A) Histograms showing changes in CD11b and CD11c frequencies upon treatment of NOD in vitro leukocyte cultures with LjN6.2 (red), LrTD1(black) or CD3 (shaded). B) Graphs showing percentage of CD11b^+ and CD11c^+ leukocytes in NOD and NOR cells cultures incubated with graded doses of bacteria as indicated. C) Graphs showing changes in MHC expression levels on CD11c^+ and CD11b^+ APC upon treatment with graded doses of LjN6.2 (shaded square) or LrTD1 (open square).
(§1) Whole lymphocytes or BMOC were incubated with 4 μg/mL anti-CD3, (LjN6.2) and/or L. reuteri TD1 (LrTD1) at various concentrations as indicated. At 48 hours, 100 μL of supernatant was removed from each well and replenished with fresh medium. Cytokine ELISAs were subsequently performed on harvested supernatants. ELISA kits were purchased from BD Bioscience: anti-IFNγ (555138; BD Biosciences, San Diego, Calif.), and anti-IL6 (555240). Capture mAb (555068) and detection mAb (555067) for IL17 were purchased from BD Biosciences. Cytokine standard for IL-17A was purchased from eBioscience (14-8171-80).
(§2) Single cell suspensions of pooled LN (axillary, inguinal, brachial, mesenteric, and superficial cervical), and spleen were stained with the following mAbs for flow-cytometric analysis: anti-CD4-Pacific Blue (RM4-5), anti-MHC I-FitC (KH95), anti-CD11c-PE (N418; eBioscience, San Diego, Calif.), anti-B220-APC (RA3-6B2, eBioscience), anti-CD11b-A700 (M1/70), anti-CD11b-FitC (M1/70, eBioscience), […] (N418, eBioscience), anti CD86-A700 (GL1), anti-CD80-PE (16-10A1), DEC 205-APC (205yekta) and anti-MHC II-FC (39-10-8) mAb. All flow cytometry antibodies were purchased from BD PharMingen unless otherwise stated. 50,000-100,000 live events were collected on a LSRII (BD PharMingen) and analyzed using FlowJo software (Tree Star, San Carlos, Calif.). The absolute numbers of cells recovered from various organs was determined by multiplying the total number of cells isolated from various tissues by the percentage of total cells bearing a lineage specific marker denoted by flow cytometry.

[3] = system: DEC205 on CD11c+ DC; assay: DEC205 expression on CD11c+ DC in splenocyte cultures, flow cytometry; format: cell-based, NOD and NOR mice; details: both NOD and NOR CD11c+ DC, dose dependent
Procedure: FIG. 9. Enhanced DC maturation mediated by LjN6.2 surface antigens. Spleenocytes derived from NOD or NOR mice, were cultured with graded doses of LjN6.2 or LrTD1in the presence of anti-CD3, as in FIG. 4. Subsequent to incubation, samples were analyzed for expression of the endocytic marker, DEC 205. A) Overlay histograms showing changes in DEC205 frequency on CD11c^+ DC upon treatment of NOD cultures with varying doses of LjN6.2 and LrTD1. B) Graphical representations of DEC205 expression on CD11c^+ DC present within NOD and NOR cultures upon incubation with varying doses of LjN6.2 and LrTD1. […]
as §2, with “All flow cytometry antibodies were purchased from BD PharMingen unless otherwise stated.” left out, “The absolute numbers of cells recovered from various organs was determined by multiplying the total number of cells isolated from various tissues by the percentage of total cells bearing a lineage specific marker denoted by flow cytometry.” left out

[4] = system: LN cells (CD11b+ leukocytes); assay: CD11b and CD40 expression in pooled LN cells cultured with bacteria, flow cytometry; format: cell-based, NOD mice; details: NOD pooled LN cells, 48 hour incubation
Procedure: (§3) FIG. 12. LjN6.2 but not LrTD1 up-regulates expression of CD11b. LN cells (brachial, inguinal, cervical and mesenteric) were isolated from NOD mice and pooled, followed by culturing in the presence or absence of bacteria. After 48 hour incubation, supernatants were removed and cells were analyzed by flow cytometry. Please note that concentration 1 (Lj1 and Lr1) is 3 fold higher than concentration 2 (Lj2 and Lr2).
as §3, with “13. […]” for “12. LjN6.2 but not LrTD1 up-regulates expression of CD11b.”, “pooled” for “pooled,”, “culture” for “culturing”, “cytometry. CD11b^+ cells were first gated and then further analyzed for CD40 expression.” for “cytometry.”
Single cell suspensions of pooled LN (axillary, inguinal, brachial, mesenteric, and superficial cervical), and spleen were stained with the following mAbs for flow-cytometric analysis: anti-CD4-Pacific Blue (RM4-5), anti-MHC I-FitC (KH95), anti-CD11c-PE (N418; eBioscience, San Diego, Calif.), anti-B220-APC (RA3-6B2, eBioscience), anti-CD11b-A700 (M1/70), anti-CD11b-FitC (M1/70, eBioscience), […] (N418, eBioscience), anti CD86-A700 (GL1), anti-CD80-PE (16-10A1), DEC 205-APC (205yekta) and anti-MHC II-FC (39-10-8) mAb. […]

[5] = system: BMDC; assay: IL6 production by BMDC incubated with LjN6.2 or lysed bacterial components, ELISA; format: cell-based, NOD mice; details: NOD BMDC matured with GM-CSF
Procedure: FIG. 9. Enhanced DC maturation mediated by LjN6.2 surface antigens. Spleenocytes derived from NOD or NOR mice, were cultured with graded doses of LjN6.2 or LrTD1in the presence of anti-CD3, as in FIG. 4. Subsequent to incubation, samples were analyzed for expression of the endocytic marker, DEC 205. A) Overlay histograms showing changes in DEC205 frequency on CD11c^+ DC upon treatment of NOD cultures with varying doses of LjN6.2 and LrTD1. B) Graphical representations of DEC205 expression on CD11c^+ DC present within NOD and NOR cultures upon incubation with varying doses of LjN6.2 and LrTD1. C) Maturing DC (BMDC), derived from NOD mice were matured in the presence of GM-CSF, followed by incubation with LjN6.2 or beadbeater lysed LjN6.2 bacterial cellular components. Left, graph showing IL6 production by BMDC incubated with either intact LjN6.2, or fractional equivalents of nonviable lysed LjN6.2 components defined by ultracentrifugation as membrane (pellet components) or cytosolic (soluble) components. […]
Bacterial cells were incubated with 0.1 mm glass beads and homogenized through the use of a beadbeater (Qbiogene) according to manufacturers' instructions. […] Efficiency of bacterial disruption was assessed through the culture of bacterial lysates on agar plates under anaerobic conditions.

[6] = system: NOD mice; assay: Systemic Th17 bias after oral feeding or pulsed DC vaccination; format: in vivo; details: oral feeding
Source text: In apparent contrast, T1D onset can also be inhibited through the generation of Foxp3^+ regulatory T cells which can be mediated by tolerogenic, immature DC. […] Therefore, restoration of DC function by oral administration of specific bacteria, or administration of a vaccine composed of gut flora modified DC, can be used to restore immune tolerance.

[7] = system: T lymphocytes; assay: IFNγ production and IFNγ+/IL17+ T lymphocytes after bacterial treatment; format: cell-based
Procedure: FIG. 14. L. johnsonii modulates adaptive immune response. […] Also, L. johnsonii increased the percentages of IFNγ^+ and IL17^+ T lymphocytes in a dose dependent manner.
as §1

Row | Substance | Th17 bias [1] | T1D resistance [1] | modulation of MHC ([2]; CD11c+ and CD11b+ APC, in contrast to LjN6.2) | DEC205 expression on CD11c+ DC [3] | CD11b expression [4] | CD40 expression on CD11b+ leukocytes [4] | IL6 production by BMDC [5] | systemic Th17 bias [6] | levels of MHC classes I and II on CD11c+ DC ([2]; NOD derived CD11c+ DC, dose dependent) | frequency of both CD11b+ and CD11c+ leukocytes ([2]; NOD derived primary cell cultures, graded doses, anti-CD3, 48 hours) | frequency of CD11b+ and CD11c+ leukocytes ([2]; NOR cultures, graded doses, anti-CD3, 48 hours) | MHCI and MHCII expression on CD11c+ DC ([2]; NOR derived CD11c+ DC) | CD11b+MHCIhi leukocytes ([2]; both NOD and NOR cultures) | frequency of CD11b+MHCIIhi leukocytes ([2]; both NOD and NOR cultures) | IFNγ production ([7]; compared with L. reuteri) | percentages of IFNγ+ and IL17+ T lymphocytes ([7]; dose dependent)
1 | L. reuteri TD1 [LrTD1] | nor mediated a Th17 bias | neither conferred T1D resistance | reduced, or negligible |  |  |  |  |  |  |  |  |  |  |  |  | 
2 | Lactobacillus johnsonii N6.2 [LjN6.2] | APC dependent, Th17 bias observed | sufficient to confer T1D resistance |  | down-regulation | up-regulates | up-regulated | copious amounts | sufficient to mediate a systemic Th17 bias | upregulated | consistently up-regulated | only moderately increased | failed to specifically increase | decrease | increase | more profoundly than L. reuteri | increased
